System: MV-4-11 cells
Assay: Gene expression microarray analysis (Affymetrix PrimeView) and GSEA
Format: cell-based, human
Conditions: gene VPS36; ACY-1035 1 mM; LIST F

Nc1ccc(-c2cccs2)cc1NC(=O)c1ccc2c(c1)cc(C1CC1)n2CCN1CCOCC1 [ACY-1035]
RFU, VPS36 (ProbeSet 11739960_a_at): 54.57 RFU

— publication PMC5218480 (PLoS ONE, 2017)
